Results taken from the RepoRT retention time repository (doi:10.1021/acs.analchem.1c00972).

Legend:
[1] = RP, Waters ACQUITY UPLC BEH C18, 100 × 1 mm, 1.7 µm, 50 °C, 0.3 mL/min, estimated dead time 0.17 min; A: water + 0.1% formic acid + 20 mM ammonium formate; B: methanol + 0.1% formic acid + 20 mM ammonium formate; gradient (min/%B) 0/0 15/100 21/100 22/0 30/0; details: stereoisomer not certain
[2] = RP, Waters ACQUITY UPLC BEH C18, 100 × 1 mm, 1.7 µm, 50 °C, 0.3 mL/min, estimated dead time 0.17 min; A: water + 10 mM ammonium bicarbonate; B: 10% water + 90% methanol + 10 mM ammonium bicarbonate; gradient (min/%B) 0/0 15/100 21/100 22/0 30/0; details: stereoisomer not certain

Compound	LC retention time [1] [min]	LC retention time [2] [min]
CC(C)=CCOc1c2occc2cc2ccc(=O)oc12 [Imperatorin]	14.3	14.6
C=CCOC(=O)c1ccccc1C(=O)OCC=C [Diallylphthalate]	14.2	14.5
C=C1CC(=CC)C(=O)OC2CCN3CC=C(COC(=O)C1(C)O)C23 (stereo not given) [Seneciphylline]	7.89	11.8
CC(=O)NCC1CN(c2ccc(N3CCOCC3)c(F)c2)C(=O)O1 (stereo not given) [Linezolid]	9.9	10
COc1nc(NC(C)C)nc(NC(C)C)n1 [Prometon]	12.2	14.1
CC1CCCC(=O)CCCC=Cc2cc(O)cc(O)c2C(=O)O1 (stereo not given) [Zearalenone]	14.4	14.1
CCOP(=S)(OCC)Oc1ccc(=O)n(-c2ccccc2)n1 [Pyridaphenthion]	14.6	14.8
CN1COCN(Cc2cnc(Cl)s2)C1=O	9.42	9.5
CNC(=O)N(C)c1nc2ccccc2s1 [Methabenzthiazuron]	12.7	13
COP(=S)(S)OC [Dimethyldithiophosphate]	2.01	2.81
COc1cc2c(c3oc4cccc(O)c4c(=O)c13)C1C=COC1O2 (stereo not given) [Sterigmatocystin]	14.6	15
CC=C(C)C(=O)OC1CCC2(C)C3CCC4C5(O)CC(O)C6(O)C(CN7CC(C)CCC7C6(C)O)C5(O)CC42OC13O (stereo not given) [Cevadine]	12.6	16.4
Nc1ccc(Cc2ccc(N)cc2)cc1 [4,4'-Methylenedianiline]	5.44	10.7
CC(=O)CCCCn1c(=O)c2c(ncn2C)n(C)c1=O [Pentoxifylline]	9.87	9.98
CCS(=O)(=O)c1nnc(N(C)C(=O)NC)s1 [Ethidimuron]	8.76	8.81
COC(C)C(O)(C(=O)OCC1=CC[N+]2([O-])CCC(O)C12)C(C)(C)O (stereo not given) [Europine N-oxide]	6.99	7.37
CC(C)CC(C)Nc1ccc(Nc2ccccc2)cc1 (stereo not given) [N-(1,3-Dimethylbutyl)-N'-phenyl-1,4-phenylenediamine]	13.3	17.2
COC1CC(OC2CCC3(C)C(CCC4C3CCC3(C)C(C5=CC(=O)OC5)C(OC(C)=O)CC43O)C2)OC(C)C1O (stereo not given) [Oleandrin]	14.4	14.7
CC(=O)c1cc(C(C)(C)C)cc2c1CCC2(C)C [Celestolide]	17.5	17.9
COc1ccccc1OCC(O)COC(N)=O (stereo not given) [Methocarbamol]	9.52	9.71
CNC(=O)Oc1cccc2c1OC(C)(C)C2 [Carbofuran]	11.8	12
Cn1cc[nH]c1=S [Methimazol]	2.75	2.82
CCCCC(CC)COP(=O)(Oc1ccccc1)Oc1ccccc1 (stereo not given) [2-Ethylhexyldiphenyl phosphate]	17.7	18.1
O=C1Nc2ccc(Cl)cc2C(c2ccccc2Cl)=NC1O (stereo not given) [Lorazepam]	13.2	13.5

Continued, values first:

LC retention time [1] [min]	LC retention time [2] [min]	Compound
14	14.3	O=C(C1CCCCC1)N1CC(=O)N2CCc3ccccc3C2C1 (stereo not given) [Praziquantel]
6.7	11.8	c1ccc(C2CN3CCSC3=N2)cc1 (stereo not given) [Levamisole]
10.5	10.8	CCOC(=O)c1ccc(N)cc1 [Benzocain]
11.9	12.1	CCOC(=O)CC(O)(CC(=O)OCC)C(=O)OCC [Triethylcitrate]
9.81	14.8	COc1ccc2c(c1OC)C(=O)OC2C1c2c(cc3c(c2OC)OCO3)CCN1C (stereo not given) [Noscapin]
15.9	16.3	CCN(CC)C(=O)SCc1ccccc1Cl [Orbencarb]
6.39	6.03	O=S(=O)(O)ON=C(Cc1c[nH]c2ccccc12)SC1OC(CO)C(O)C(O)C1O (stereo not given) [Glucobrassicin]
6.03	10.3	CCN1CCCC1CNC(=O)c1cc(S(N)(=O)=O)ccc1OC (stereo not drawn) [(s)-(-)-Sulpiride]
16.7	17.1	CCCCOC(=O)C(C)Oc1ccc(Oc2ccc(C(F)(F)F)cn2)cc1 (stereo not given) [Fluazifop-butyl]
13.2	13.5	CC1CC2C3CCC4=CC(=O)C=CC4(C)C3(F)C(O)CC2(C)C1(O)C(=O)CO (stereo not given) [Dexamethasone]
9.91	12	CCNc1nc(NC(C)CC)[nH]c(=O)n1 (stereo not given) [Sebuthylazine-2-hydroxy]
7.75	7.74	Cc1c(C=O)c(=O)n(-c2ccccc2)n1C [4-Formyl-antipyrine]
12.3	12.6	Cc1c(C(C)C)c(=O)n(-c2ccccc2)n1C [Propyphenazone]
14.1	12.9	[NH3+][C@@H](Cc1cc(I)c(Oc2cc(I)c(O)c(I)c2)c(I)c1)C(=O)[O-] [L-thyroxine]
9.72	4.78	O=C(O)c1ccccc1O [Salicylic acid]
15.6	16	CC(=O)OCC(=O)C12OC3(CCCC3)OC1CC1C3CCC4=CC(=O)C=CC4(C)C3(F)C(O)CC12C (stereo not given) [Amcinonide]
12.5	12.9	COC(=O)Nc1nc2ccc(C(=O)c3ccccc3)cc2[nH]1 [Mebendazole]
12.3	10.1	O=c1c(O)c(-c2ccc(O)cc2)oc2cc(O)cc(O)c12 [Kaempferol]
18.8	19.3	CCC(C)C1OC2(CCC1C)CC1CC(CC=C(C)C(OC3CC(OC)C(OC4CC(OC)C(O)C(C)O4)C(C)O3)C(C)C=CC=C3COC4C(O)C(C)=CC(C(=O)O1)C34O)O2 (stereo not given) [Ivermectin B1a]
9.58	12.4	COCCc1ccc(OCC(O)CNC(C)C)cc1 (stereo not given) [Metoprolol]
8.85	13.8	CCCNC(C)C(=O)Nc1ccccc1C (stereo not given) [Prilocaine]
16.7	13.6	O=C(Nc1ccc([N+](=O)[O-])cc1Cl)c1cc(Cl)ccc1O [Niclosamide]
13.1	14.2	COCCCNc1nc(NC(C)C)nc(SC)n1 [Methoprothryne]
13.1	14.2	CCCSc1ccc2nc(NC(=O)OC)[nH]c2c1 [Albendazole]
13.7	14	CSC(=O)c1cccc2nnsc12 [Acibenzolar-S-methyl]
12.2	14.8	CCCc1nc(C)c2c(=O)[nH]c(-c3cc(S(=O)(=O)N4CCN(CC)CC4)ccc3OCC)nn12 [Vardenafil]
